Laboratory results reported in patent US12077503B2, “Substituted cyclic amides and their use as herbicides” (FMC CORPORATION, priority 2015, dated 2024).

Legend:
Type in all cases: in vivo
[1] = test system: barnyardgrass (Echinochloa crus-galli); assay: Test B flooded paddy test; details: Flood, 250 g ai/ha; 0 to 100 scale where 0 is no effect and 100 is complete control; 13 to 15 d
In short: (§1)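 2-leaf plants; pots flooded 3 cm over soil; cpd added to paddy water; depth held; greenhouse 13–15 d; visual rating vs controls, 0 = no effect, 100 = complete control.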

[2] = test system: ducksalad (Heteranthera limosa); assay: Test B flooded paddy test; details: Flood, 250 g ai/ha; 0 to 100 scale where 0 is no effect and 100 is complete control; 13 to 15 d
In short: as §1

rice (Oryra sativa) = assay: Test B flooded paddy test; details: Flood, 250 g ai/ha; 0 to 100 scale where 0 is no effect and 100 is complete control; 13 to 15 d
In short: as §1

[3] = test system: sedge, umbrella (small-flower umbrella sedge, Cyperus difformis); assay: Test B flooded paddy test; details: Flood, 250 g ai/ha; 0 to 100 scale where 0 is no effect and 100 is complete control; 13 to 15 d
In short: as §1

[4] = test system: ragweed (common ragweed, Ambrosia elatior); assay: Test A postemergence
In short: (§2)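 Greenhouse, ~10 d after spray; visual injury vs untreated controls, 0 = no effect, 100 = complete control. Preemergence: directed soil spray over planted seeds. Postemergence: plants 2–10 cm, 1–2 leaf stage. Loam/sand blend. Compound in non-phytotoxic solvent with surfactant.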

[5] = test system: pigweed (Amaranthus retroflexus); assay: Test A postemergence
In short: as §2

[6] = test system: wheat (Triticum aestivum); assay: Test A postemergence
In short: as §2

[7] = test system: giant foxtail (Setaria faberii); assay: Test A postemergence
In short: as §2

[8] = test system: Galium (catchweed bedstraw, Galium aparine); assay: Test A postemergence
In short: as §2

corn (Zea mays) = assay: Test A postemergence
In short: as §2

[9] = test system: barnyardgrass (Echinochloa crus-galli); assay: Test A postemergence
In short: as §2

Kochia (Kochia scoparia) [10] = assay: Test A postemergence
In short: as §2

[11] = test system: blackgrass (Alopecurus myosuroides); assay: Test A postemergence
In short: as §2

[12] = test system: ryegrass, Italian (Italian ryegrass, Lolium multiflorum); assay: Test A postemergence
In short: as §2

[13] = test system: ragweed (common ragweed, Ambrosia elatior); assay: Test A preemergence; details: for Plant response rating, Ragweed: 125 g ai/ha
In short: as §2

[14] = test system: pigweed (Amaranthus retroflexus); assay: Test A preemergence; details: for Plant response rating, Pigweed: 125 g ai/ha; for Pigweed plant response rating (0 to 100 scale, 0 is no effect, 100 is complete control): 500 g ai/ha, visual injury approx. 10 d
[15] = test system: giant foxtail (Setaria faberii); assay: Test A preemergence; details: for Plant response rating, Foxtail, Giant: 125 g ai/ha; for Foxtail, Giant plant response rating (0 to 100 scale, 0 is no effect, 100 is complete control): 500 g ai/ha, visual injury approx. 10 d
In short: as §2

[16] = test system: barnyardgrass (Echinochloa crus-galli); assay: Test A preemergence; details: for Plant response rating, Barnyardgrass: 125 g ai/ha; for Barnyardgrass plant response rating (0 to 100 scale, 0 is no effect, 100 is complete control): 500 g ai/ha, visual injury approx. 10 d
In short: as §2

Kochia (Kochia scoparia) [17] = assay: Test A preemergence; details: for Plant response rating, Kochia: 125 g ai/ha; for Kochia plant response rating (0 to 100 scale, 0 is no effect, 100 is complete control): 500 g ai/ha, visual injury approx. 10 d
In short: as §2

[18] = test system: ryegrass, Italian (Italian ryegrass, Lolium multiflorum); assay: Test A preemergence; details: for Plant response rating, Ryegrass, Italian: 125 g ai/ha; for Ryegrass, Italian plant response rating (0 to 100 scale, 0 is no effect, 100 is complete control): 500 g ai/ha, visual injury approx. 10 d
In short: as §2

[19] = 125 g ai/ha, postemergence, visual rating after approx. 10 d, 0 to 100 scale (0 no effect, 100 complete control)
[20] = Postemergence, 500 g ai/ha, 0 to 100 scale where 0 is no effect and 100 is complete control
[21] = Preemergence, visual injury after approximately 10 d, 0 to 100 scale where 0 is no effect and 100 is complete control
[22] = 125 g ai/ha, postemergence, visual injury rating on 0 to 100 scale (0 no effect, 100 complete control), approx. 10 d
[23] = 500 g ai/ha, postemergence, 0 to 100 scale, 0 no effect, 100 complete control
[24] = preemergence, 0 to 100 scale (0 no effect, 100 complete control)

CC(C)Oc1cccc(C2CNC(=O)C2C(=O)Nc2cccc(F)c2F)c1 (centres unmarked) [Compound 553]
60: Plant response rating, Wheat [6, 20] | Plant response rating, Galium [8, 19] | Plant response rating, Galium [8, 20] | Plant response rating, Blackgrass [11, 20] | Plant response rating, Ryegrass, Italian [12, 19] | Plant response rating, Kochia (Kochia (Kochia scoparia) [17]; [21])
40: Plant response rating, Ragweed [4, 20] | Plant response rating, Wheat [6, 19] | Plant response rating, Ragweed [13, 21] | Pigweed plant response rating (0 to 100 scale, 0 is no effect, 100 is complete control) ([14]; Preemergence)
65: Plant response rating, Barnyardgrass [1]
100: Plant response rating, Ducksalad [2]
50: Plant response rating, Kochia (Kochia (Kochia scoparia) [10]; [20]) | Plant response rating, Blackgrass [11, 19]
0: Plant response rating, Sedge, Umbrella [3]
20: Plant response rating, Pigweed [5, 19]
90: Plant response rating, Foxtail, Giant [7, 20] | Plant response rating, Corn (corn (Zea mays); [20]) | Plant response rating, Barnyardgrass [9, 19] | Plant response rating, Barnyardgrass [9, 20] | Plant response rating, Foxtail, Giant [15, 21] | Foxtail, Giant plant response rating (0 to 100 scale, 0 is no effect, 100 is complete control) ([15]; Preemergence) | Plant response rating, Barnyardgrass [16, 21] | Barnyardgrass plant response rating (0 to 100 scale, 0 is no effect, 100 is complete control) ([16]; Preemergence)
30: Plant response rating, Ragweed [4, 19] | Plant response rating, Pigweed [5, 20] | Plant response rating, Kochia (Kochia (Kochia scoparia) [10]; [19]) | Plant response rating, Pigweed [14, 21]
10: Plant response rating, Rice (rice (Oryra sativa))
80: Plant response rating, Corn (corn (Zea mays); [19]) | Kochia plant response rating (0 to 100 scale, 0 is no effect, 100 is complete control) (Kochia (Kochia scoparia) [17]; Preemergence)
70: Plant response rating, Foxtail, Giant [7, 19] | Plant response rating, Ryegrass, Italian [12, 20] | Plant response rating, Ryegrass, Italian [18, 21] | Ryegrass, Italian plant response rating (0 to 100 scale, 0 is no effect, 100 is complete control) ([18]; Preemergence)

Cc1cc(C2CN(C)C(=O)C2C(=O)Nc2ccccc2C(F)(F)F)ccc1F (centres unmarked) [Compound 406]
0: Plant response rating, Rice (rice (Oryra sativa)) | Plant response rating, Sedge, Umbrella [3] | Plant response rating, Ragweed [13, 24] | Plant response rating, Kochia (Kochia (Kochia scoparia) [17]; [24])
70: Plant response rating, Barnyardgrass [1] | Plant response rating, Wheat [6, 23] | Plant response rating, Corn (corn (Zea mays); [23])
90: Barnyardgrass plant response rating [9, 22] | Plant response rating, Barnyardgrass [9, 23] | Plant response rating, Foxtail, Giant [15, 24] | Foxtail, Giant plant response rating (0 to 100 scale, 0 is no effect, 100 is complete control) ([15]; Preemergence) | Plant response rating, Barnyardgrass [16, 24] | Barnyardgrass plant response rating (0 to 100 scale, 0 is no effect, 100 is complete control) ([16]; Preemergence)
50: Galium plant response rating [8, 22] | Plant response rating, Galium [8, 23] | Plant response rating, Kochia (Kochia (Kochia scoparia) [10]; [23]) | Plant response rating, Blackgrass [11, 23] | Pigweed plant response rating (0 to 100 scale, 0 is no effect, 100 is complete control) ([14]; Preemergence) | Ryegrass, Italian plant response rating (0 to 100 scale, 0 is no effect, 100 is complete control) ([18]; Preemergence)
20: Ragweed plant response rating [4, 22] | Plant response rating, Ragweed [4, 23] | Pigweed plant response rating [5, 22] | Corn plant response rating (corn (Zea mays); [22]) | Plant response rating, Pigweed [14, 24] | Plant response rating, Ryegrass, Italian [18, 24]
40: Wheat plant response rating [6, 22] | Kochia plant response rating (Kochia (Kochia scoparia) [10]; [22]) | Plant response rating, Ryegrass, Italian [12, 23] | Ragweed plant response rating (0 to 100 scale, 0 is no effect, 100 is complete control) ([13]; Preemergence, 500 g ai/ha, visual injury approx. 10 d) | Kochia plant response rating (0 to 100 scale, 0 is no effect, 100 is complete control) (Kochia (Kochia scoparia) [17]; Preemergence)
80: Plant response rating, Ducksalad [2] | Foxtail, Giant plant response rating [7, 22] | Plant response rating, Foxtail, Giant [7, 23]
30: Plant response rating, Pigweed [5, 23] | Blackgrass plant response rating [11, 22] | Ryegrass, Italian plant response rating [12, 22]
